For data set [1], the system named is B16-F10. Kind of data set: (§1) Cytotoxicity against mouse B16F10 cells assessed as reduction in cell viability after 48 hrs by MTT assay. The data set is classed as functional, cell-based.
A further data set concerns A549. Kind of data set: (§2) Cytotoxicity against human A549 cells assessed as reduction in cell viability after 48 hrs by MTT assay. The data set is classed as functional, cell-based.
Data set [2] in a line: as §2. The conditions noted are these: A549, 48 h. The format is functional, cell-based.
Data set [3] can be described thus: as §1. The format is functional, cell-based. The conditions noted are these: B16-F10, 48 h.
The subject of data set [4] is B16-F10. Description: Induction of apoptosis in mouse B16F10 cells assessed as DNA damage at 50 uM after 24 hrs by propidium iodide/Hoechst staining based FACS analysis. The data set is classed as functional, cell-based. In general terms: A flow cytometer gives signals particle by particle.
Data set [5] is described as follows: Cytotoxicity against CHO cells assessed as reduction in cell viability up to 100 uM after 48 hrs by MTT assay. The format is toxicity, cell-based, Cricetulus griseus. Particulars: chinese hamster. In general terms: Tetrazolium dyes change colour on reduction, which living cells bring about.
The nature of data set [6]: Cell cycle arrest in mouse B16F10 cells assessed as accumulation in sub G0/G1 phase at 50 uM after 24 hrs by propidium iodide staining based FACS analysis. Particulars: B16-F10. The format is functional.
A short description of data set [7]: Cell cycle arrest in mouse B16F10 cells assessed as decrease in G0/G1 phase at 50 uM after 24 hrs by propidium iodide staining based FACS analysis. The format is functional. Particulars: B16-F10.
Data set [8] is described as follows: Cytotoxicity against CHO cells assessed as reduction in cell viability at 50 to 100 uM after 48 hrs by MTT assay. The data set is classed as toxicity, cell-based, Cricetulus griseus. The conditions noted are these: chinese hamster.
Data set [9] is described as follows: Cell cycle arrest in mouse B16F10 cells assessed as accumulation in G2/M phase at 50 uM after 24 hrs by propidium iodide staining based FACS analysis. Particulars: B16-F10. The data set is classed as functional.
Data set [10] relates to B16-F10. Description: Induction of intracellular superoxide radical accumulation in mouse B16F10 cells at 50 uM by dihydroethidium staining based fluorescence microscopic analysis. The format is functional, cell-based.
Data set [11] relates to B16-F10. Description: Induction of intracellular hydrogen peroxide accumulation in mouse B16F10 cells at 50 uM after 24 hrs by DCF-DA staining based fluorescence microscopic analysis. The format is functional, cell-based.
A short description of data set [12]: Cytotoxicity against CHO cells assessed as reduction in cell viability up to 10 uM after 48 hrs by MTT assay. The data set is classed as toxicity, cell-based, Cricetulus griseus. Particulars: chinese hamster.
Another data set concerns PANC-1. Description: Cytotoxicity against human PANC1 cells assessed as reduction in cell viability up to 100 uM after 48 hrs by MTT assay. The format is functional, cell-based.
Data set [13] can be described thus: Cytotoxicity against mouse B16F10 cells assessed as inhibition of cell viability at 4 uM after 48 hrs by MTT assay relative to control. The format is functional. Particulars: B16-F10, 48 h.
Data set [14] in a line: Cytotoxicity against human A549 cells assessed as inhibition of cell viability at 4 uM after 48 hrs by MTT assay relative to control. The format is functional. The conditions noted are these: A549, 48 h.

Calls of active or inactive are those of the source. The calls are words filed in the database; no cut-off is given here.

`O=C(CN1CCN(c2ccccn2)CC1)Nc1ccc(/N=C2\SCC(=O)N2Cc2cccs2)cc1`: the outcome in the data set on B16-F10 [1] and in the data set on A549 was Active.
For the compound `O=C(CN1CCN(C(=O)c2ccccc2)CC1)Nc1ccc(/N=C2\SCC(=O)N2Cc2cccs2)cc1`, the half-maximal inhibitory concentration (IC50) in data set [2] came out at 10 µM.
Regarding `O=C(CN1CCOCC1)Nc1ccc(/N=C2\SCC(=O)N2Cc2ccco2)cc1`, the outcome in the data set on B16-F10 [1] and with A549 was Active.
In the case of `O=C(CN1CCCC1)Nc1ccc(/N=C2\SCC(=O)N2Cc2cccs2)cc1`, the IC50 in data set [3] came to 5.4 µM. The result (in the data set with B16-F10 [4]; in [6]; in data set [7]) was Active. In addition, the Activity result in data set [5] is recorded as “Non-Toxic”.
As for `CN(C)CC(=O)Nc1ccc(/N=C2\SCC(=O)N2Cc2cccs2)cc1`, the result with B16-F10 [1] and in the data set with A549 was Active.
Regarding `O=C(CN1CCSCC1)Nc1ccc(/N=C2\SCC(=O)N2Cc2cccs2)cc1`, the IC50 in [2] stood at 10 µM.
Consider `O=C(CN1CCCCC1)Nc1ccc(/N=C2\SCC(=O)N2Cc2ccco2)cc1`, for which the outcome in the data set with B16-F10 [1] and in the data set on A549 was Active.
As to `O=C(CN1CCSCC1)Nc1ccc(/N=C2\SCC(=O)N2Cc2ccco2)cc1`, the outcome in the data set on B16-F10 [1] and with A549 was Active.
`CN1CCN(CC(=O)Nc2ccc(/N=C3\SCC(=O)N3Cc3cccs3)cc2)CC1`: the outcome in the data set on B16-F10 [1] and in the data set with A549 was Active.
For `CCN(CC)CC(=O)Nc1ccc(/N=C2\SCC(=O)N2Cc2cccs2)cc1`, the results for the IC50 in [3] and in data set [2] were 7 µM and 12.5 µM, respectively. The result (in the data set with B16-F10 [4]; in data set [6]; in data set [7]) was Active. Moreover, in data set [5], the Activity entry was “Non-Toxic”.
Regarding `CN(C)CC(=O)Nc1ccc(/N=C2\SCC(=O)N2Cc2ccco2)cc1`, the result with B16-F10 [1] and in the data set on A549 was Active.
Turning to `O=C(CN1CCCCC1)Nc1ccc(/N=C2\SCC(=O)N2Cc2cccs2)cc1`, the outcome in the data set with B16-F10 [1] and with A549 was Active.
Consider `CCCNCC(=O)Nc1ccc(/N=C2\SCC(=O)N2Cc2cccs2)cc1`, for which the Activity result was “Toxic” in [8] and “Non-Toxic” in data set [12]. Moreover, the outcome (in data set [9]; in the data set with B16-F10 [10]; in the data set with B16-F10 [11]; in the data set with B16-F10 [4]) was Active. Also, in data set [3], the IC50 was 3.4 µM.
Turning to `O=C(CN1CCOCC1)Nc1ccc(/N=C2\SCC(=O)N2Cc2cccs2)cc1`, in data set [2], the IC50 is 12.6 µM.
Consider `COc1ccccc1N1CCN(CC(=O)Nc2ccc(/N=C3\SCC(=O)N3Cc3ccco3)cc2)CC1`, for which the result in the data set with B16-F10 [1] and in the data set on A549 was Active.
In the case of `CCNCC(=O)Nc1ccc(/N=C2\SCC(=O)N2Cc2cccs2)cc1`, the results for the IC50 in data set [3] and in [2] were 11.6 µM and 12.6 µM, respectively. The outcome in the data set on PANC-1 was Active.
For `N#Cc1ccccc1N1CCN(CC(=O)Nc2ccc(/N=C3\SCC(=O)N3Cc3ccco3)cc2)CC1`, the result with B16-F10 [1] and in the data set on A549 was Active.
On to `CCN(CC)CC(=O)Nc1ccc(/N=C2\SCC(=O)N2Cc2ccco2)cc1`, for which the outcome with B16-F10 [1] and in the data set with A549 was Active.
With `O=C(CN1CCN(c2ccc(F)cc2)CC1)Nc1ccc(/N=C2\SCC(=O)N2Cc2cccs2)cc1`, the result in the data set with B16-F10 [1] and in the data set with A549 was Active.
With `COc1cccc2c1C(=O)c1c(O)c3c(c(O)c1C2=O)C[C@@](O)(C(=O)CO)C[C@@H]3O[C@H]1C[C@H](N)[C@H](O)[C@H](C)O1` [DOXORUBICIN], the inhibition at 4 µM is 40.9% in [13] and 28% in [14].
Take `O=C(CN1CCCC1)Nc1ccc(/N=C2\SCC(=O)N2Cc2ccco2)cc1`: the result in the data set on B16-F10 [1] and in the data set with A549 was Active.

The term IC50 denotes the concentration at which inhibition is half-maximal. Broadly, the inhibition is the share of the control response that was lost under treatment.

These data come from ChEMBL document CHEMBL3856232, “Synthesis and biological evaluation of novel 2-imino-4-thiazolidinone derivatives as potent anti-cancer agents” (Bioorg Med Chem Lett, 2016).
